This note sets out measurements from US7842685B2, “S1P1 receptor agonists and use thereof” (Amgen Inc., priority 2008, dated 2010).

Where a name gives a salt, the structure may show the parent alone.

For the assay, the target named is T1, hS1P1 receptor (Homo sapiens, UniProt P21453).
T1 construct: host or cells: U2OS
Kind of assay: hS1P1 receptor internalization assay (cell imaging-based, hS1P1-eGFP U2OS cells). Conditions: U2OS cell line expressing hS1P1-eGFP, compounds incubated at 37° C. for one hour; for Emax: 1 h, efficacy (Max), read-out: hS1P1 Receptor Internalization (biolimaging) Max (%); for EC50: GFP-containing endosomes per cell (ArrayScan), read-out: hS1P1 Receptor Internalization (bioimaging) EC50 IP. The protocol:
The activity of compounds of the invention was determined by a cell imaging-based assay measuring the degree of hS1P1 receptor internalization and a Ca^2+ mobilization assay measuring the level of S1P receptor activation. The receptor internalization assay was employed to determine the potency and efficacy of compounds on hS1P1 receptor, while Ca^2+ mobilization assay was used to determine selectivity among different S1P receptors and activity on S1P receptors from species such as rat, dog, and cyno. The hS1P1 receptor internalization assay was performed using a U2OS cell line expressing hS1P1-eGFP chimeric protein (Thermo Scientific, Soeborg, Denmark). Upon compound treatment, the hS1P1 receptor was internalized in cytoplasma and formed GFP-containing-endosomes. This event was detected by an automated microscope, ArrayScan (Thermo Scientific Cellomics, Pittsburg), and the degree of receptor internalization is quantitated by counting green fluorescent GFP-containing endosomes per cell. In this assay, hS1P1-eGFP expressing U2OS cells were starved in serum free media for two hours prior to compound treatment. Then compounds were incubated with the starved cells at 37° C. for one hour. Subsequently, compound-treated cells were fixed using 4% formaldehyde, and the nuclei were stained using Hoechst. Then the cells were imaged in ArrayScan. The potency and efficacy of the compounds were determined by plotting the number of green fluorescent GFP-containing endosomes per cell against corresponding compound concentration.

T1 sequence (P21453 whole entry): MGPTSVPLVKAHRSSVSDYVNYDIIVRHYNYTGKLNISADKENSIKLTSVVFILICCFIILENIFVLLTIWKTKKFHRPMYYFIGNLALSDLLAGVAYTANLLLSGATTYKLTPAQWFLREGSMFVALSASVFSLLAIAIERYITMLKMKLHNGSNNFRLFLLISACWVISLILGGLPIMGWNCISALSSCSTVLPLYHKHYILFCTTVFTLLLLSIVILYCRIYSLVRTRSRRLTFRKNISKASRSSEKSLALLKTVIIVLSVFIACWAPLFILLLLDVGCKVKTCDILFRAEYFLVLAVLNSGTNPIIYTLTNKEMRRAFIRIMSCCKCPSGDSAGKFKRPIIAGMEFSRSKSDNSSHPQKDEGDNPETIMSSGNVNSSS

`NC(CO)(CCc1ccc(-c2nc3ccc(C4(c5ccccc5)CC4)nc3s2)c(F)c1)COP(=O)(O)O` (racemic) [Example 43, (rac)-2-amino-4-(3-fluoro-4-(5-(1-phenylcyclopropyl)thiazolo[5,4-b]pyridine-2-yl)phenyl)-2-(hydroxymethyl)butyl dihydrogen phosphate]: the Emax was determined as 122% and the EC50 stood at 0.3 nM.

As for `OC1CN(Cc2ccc(-c3nc4ccc(C5(c6ccccc6)CC5)nc4s3)c(F)c2)C1` [Example 35, 1-(3-fluoro-4-(5-(1-phenylcyclopropyl)thiazolo[5,4-b]pyridin-2-yl)benzyl)-azetidin-3-ol], the Emax came out at 90% and the EC50 came to 18.7 nM.

As to `O=C(O)c1cnn(Cc2ccc(-c3nc4ccc(C5(c6ccccc6)CC5)nc4s3)c(F)c2)c1` [Example 98, 1-(3-fluoro-4-(5-(1-phenylcyclopropyl)thiazolo[5,4-b]pyridin-2-yl)benzyl)-1H-pyrazole-4-carboxylic acid hydrochloride], the Emax was 93% and the EC50 amounted to 44.9 nM.

With `O=C(O)C1CN(Cc2ccc(-c3nc4ccc(C5(c6ccccc6)CCO5)nc4s3)c(F)c2)C1` (stereo not shown) [Example 9, 1-((3-fluoro-4-(5-(2-phenyloxetan-2-yl)thiazolo[5,4-b]pyridine-2-yl)-phenyl)methyl)azetidine-3-carboxylic acid], the Emax amounted to 144% and the EC50 turned out to be 28.6 nM.

Turning to `O=C(O)C1CN(Cc2ccc(-c3nc4ccc(C5(c6ccccc6)CC5)cc4s3)c(F)c2)C1` [Example 10, 1-((3-fluoro-4-(6-(1-phenylcyclopropyl)benzo[d]thiazol-2-yl)phenyl)-methyl)azetidine-3-carboxylic acid hydrochloride], the Emax amounted to 97% and the EC50 is 42 nM.

On to `C[C@H](CC(=O)O)NCc1ccc(-c2nc3ccc(C4(c5ccccc5)CC4)nc3s2)c(F)c1` [Example 91, (R)-3-(3-fluoro-4-(5-(1-phenylcyclopropyl)thiazolo[5,4-b]pyridin-2-yl)benzylamino)butanoic acid hydrochloride], for which the Emax is 131% and the EC50 is 32.7 nM.

For `O=C(O)C1CN(Cc2ccc(-c3nc4ccc(C5(c6ccc(O)cc6)CC5)nc4s3)c(F)c2)C1` [Example 39, 1-(3-fluoro-4-(5-(1-(4-hydroxyphenyl)cyclopropyl)thiazolo[5,4-b]pyridine-2-yl)benzyl)azetidine-3-carboxylic acid], the Emax worked out at 83% and the EC50 stood at 21.2 nM.

`CS(=O)(=O)NCCc1ccc(-c2nc3ccc(C4(c5ccccc5)CC4)nc3s2)c(F)c1` [Example 61, N-(2-(3-fluoro-4-(5-(1-phenylcyclopropyl)[1,3]thiazolo[5,4-b]pyridin-2-yl)phenyl)ethyl)methanesulfonamide]: the Emax was determined as 491% and the EC50 was found to be 2490 nM.

`CNc1ccc(-c2nc3ccc(C4(c5ccccc5)CC4)nc3s2)c(F)c1` [Example 121, 3-fluoro-N-methyl-4-(5-(1-phenylcyclopropyl)[1,3]thiazolo[5,4-b]pyridin-2-yl)aniline]: the Emax was 125% and the EC50 was determined as 777 nM.

`O=C(O)C[C@H](O)C(=O)Nc1ccc(-c2nc3ccc(C4(c5ccccc5)CC4)nc3s2)c(F)c1` [Example 133, (3S)-4-(3-fluoro-4-(5-(1-phenylcyclopropyl)thiazolo[5,4-b]pyridin-2-yl)phenylamino)-3-hydroxy-4-oxobutanoic acid]: the Emax came to 133% and the EC50 was determined as 2.2 nM.

In the case of `O=C(O)C1CN(Cc2ccc(-c3nc4ccc(C5(C6CCCCC6)CC5)nc4s3)c(F)c2)C1` [Example 47, 1-(4-(5-(1-cyclohexylcyclopropyl)thiazolo[5,4-b]pyridine-2-yl)-3-fluorobenzyl)azetidine-3-carboxylic acid trifluoroacetic acid salt], the Emax amounted to 117% and the EC50 came to 5.9 nM.

On to `O=C(O)CCS(=O)(=O)Nc1ccc(-c2nc3ccc(C4(c5ccccc5)CC4)nc3s2)c(F)c1` [Example 124, 3-((3-fluoro-4-(5-(1-phenylcyclopropyl)[1,3]thiazolo[5,4-b]pyridin-2-yl)phenyl)sulfamoyl)propanoic acid], for which the Emax turned out to be 131% and the EC50 worked out at 946 nM.

Turning to `O=C(O)CN1CCc2cc(-c3nc4ccc(C5(c6ccccc6)CC5)nc4s3)ccc2C1` [Example 82, 2-(6-(5-(1-phenylcyclopropyl)thiazolo[5,4-b]pyridin-2-yl)-3,4-dihydroisoquinolin-2(1H)-yl)acetic acid], the Emax was 106% and the EC50 came to 46.1 nM.

`O=C(Nc1ccc(-c2nc3ccc(C4(c5ccccc5)CC4)nc3s2)c(F)c1)C(F)(F)F` [Example 118, 2,2,2-trifluoro-N-(3-fluoro-4-(5-(1-phenylcyclopropyl)[1,3]thiazolo[5,4-b]pyridin-2-yl)phenyl)acetamide]: the Emax was 111% and the EC50 was found to be 298 nM.

As for `O=C(O)CC1CN(Cc2ccc(-c3nc4ccc(C5(c6ccccc6)CC5)nc4s3)c(F)c2)C1` [Example 79, 2-(1-(3-fluoro-4-(5-(1-phenylcyclopropyl)thiazolo[5,4-b]pyridin-2-yl)-benzyl)azetidin-3-yl)acetic acid], the Emax came to 150% and the EC50 was 38.4 nM.

On to `O=C(O)C1CN(Cc2ccc(-c3nc4nc(C5(c6ccccc6)CC5)ccc4s3)c(F)c2)C1` [Example 44, 1-(3-fluoro-4-(5-(1-phenylcyclopropyl)thiazolo[4,5-b]pyridin-2-yl)-benzyl)azetidine-3-carboxylic acid trifluoroacetic acid salt], for which the Emax turned out to be 113% and the EC50 was 59.7 nM.

As to `Nc1cc(CN2CC(C(=O)O)C2)ccc1-c1nc2ccc(C3(c4ccccc4)CC3)nc2s1` [Example 46, 1-(3-amino-4-(5-(1-phenylcyclopropyl)thiazolo[5,4-b]pyridin-2-yl)benzyl)azetidine-3-carboxylic acid], the Emax stood at 99% and the EC50 is 4.8 nM.

For `O=C(O)c1cn(Cc2ccc(-c3nc4ccc(C5(c6ccccc6)CC5)nc4s3)c(F)c2)cn1` [Example 96, 1-(3-fluoro-4-(5-(1-phenylcyclopropyl)thiazolo[5,4-b]pyridin-2-yl)benzyl)-1H-imidazole-4-carboxylic acid hydrochloride], the Emax is 105% and the EC50 is 10.9 nM.

Take `NC(CO)(CO)CCc1ccc(-c2nc3ccc(C4(c5ccccc5)CC4)nc3s2)c(F)c1` [Example 42, 2-amino-2-(3-fluoro-4-(5-(1-phenylcyclopropyl)thiazolo[5,4-b]pyridin-2-yl)phenethyl)propane-1,3-diol hydrochloride]: the Emax is 119% and the concentration giving a half-maximal response (EC50) was found to be 10.2 nM.

Regarding `O=C(O)C1(C(=O)O)CC(Cc2ccc(-c3nc4ccc(C5(c6ccccc6)CC5)nc4s3)c(F)c2)C1` [Example 30, 3-(3-fluoro-4-(5-(1-phenylcyclopropyl)thiazolo[5,4-b]pyridine-2-yl)benzyl)cyclobutane-1,1-dicarboxylic acid], the Emax was 79% and the EC50 worked out at 2910 nM.

Regarding `O=C(O)C1CN(Cc2ccc(-c3nc4ccc(C5(C6CCOCC6)CC5)nc4s3)c(F)c2)C1` [Example 52, 1-(3-fluoro-4-(5-(1-(tetrahydro-2H-pyran-4-yl)cyclopropyl)thiazolo[5,4-b]pyridine-2-yl)benzyl)azetidine-3-carboxylic acid trifluoroacetic acid salt], the Emax is 109% and the EC50 turned out to be 1190 nM.

For the molecule `O=C(c1ccc(-c2nc3ccc(C4(c5ccccc5)CC4)nc3s2)c(F)c1)N1CCC1` [Example 105, 2-(4-(1-azetidinylcarbonyl)-2-fluorophenyl)-5-(1-phenylcyclopropyl)-[1,3]thiazolo[5,4-b]pyridine], the Emax is 63% and the EC50 came out at 3330 nM.

In the case of `Cc1cc(-c2nc3ccc(C4(c5ccccc5)CC4)nc3s2)cc(C)c1OC[C@H](O)CO` [Example 67, (R)-3-(2,6-dimethyl-4-(5-(1-phenylcyclopropyl)thiazolo[5,4-b]pyridin-2-yl)phenoxy)propane-1,2-diol], the Emax was 125% and the EC50 was determined as 70.4 nM.

On to `O=C(NC1CC1)c1ccc(-c2nc3ccc(C4(c5ccccc5)CC4)nc3s2)c(F)c1` [Example 113, N-cyclopropyl-3-fluoro-4-(5-(1-phenylcyclopropyl)[1,3]thiazolo[5,4-b]pyridin-2-yl)benzamide], for which the Emax was determined as 55% and the EC50 was 732 nM.

Turning to `CN(CCO)C(=O)c1ccc(-c2nc3ccc(C4(c5ccccc5)CC4)nc3s2)c(F)c1` [Example 109, 3-fluoro-N-(2-hydroxyethyl)-N-methyl-4-(5-(1-phenylcyclopropyl)-[1,3]thiazolo[5,4-b]pyridin-2-yl)benzamide], the Emax was 41% and the EC50 came out at 2350 nM.

As for `O=C(O)C1CN(Cc2ccc(-c3nc4ccc(C5(c6ccccn6)CC5)cc4s3)c(F)c2)C1` [Example 62, 1-((3-fluoro-4-(6-(1-(pyridine-2-yl)cyclopropyl)benzo[d]thiazol-2-yl)-phenyl)methyl)azetidine-3-carboxylic acid], the Emax is 98% and the EC50 is 3710 nM.
